Data set [1] deals with Hs578T. Nature of the data set: Cell vitality assay (ATP assay, CellTiter-Glo). In kind it is cell-based. The conditions noted are these: Homo sapiens, Hs-578T; HS578T cell line, 72 h; Table Ib; read-out: IC50 ATP-Assay HS578T after 72 h. On the procedure: The CellTiter-Glo® Luminescent Cell Viability Assay (Promega Corporation. Madison, Wis., USA) is method a determining the number of viable cells in culture based on quantification of the ATP being present which is an indicator of metabolically active cells was used according to manufacturers protocol, In detail the assay was performed in a 96 well format were 1000 cells/well were incubated with indicated compound at concentration of 12.5 μM, 6.25 μM, 3.125 μM, 1.56 μM, 0.78 μM, 0.39 μM, 0.195 μM as well as DMSO control for 72 h in 100 μl cell culture medium. IC50 values were calculated as 50% of ATP amount compared to DMSO control.
Protocol for the CellTiter-Glo® Luminescent Cell Viability Assay • 1. Prepare opaque-walled multiwell plates with mammalian cells in culture medium, 100 μl per well for 96-well plates • 2. Prepare control wells containing medium without cells to obtain a value for background luminescence. • 3. Add the compound to be tested to experimental wells, and incubate according to culture protocol. • 4. Equilibrate the plate and its contents at room temperature for approximately 30 minutes. • 5. Add a volume of CellTiter-Glo® Reagent (Promega Corporation. Madison, Wis.) equal to the volume of cell culture medium present in each well. • 6. Mix contents for 2 minutes on an orbital shaker to induce cell lysis. • 7. Allow the plate to incubate at room temperature for 10 minutes to stabilize luminescent signal. • 8. Record luminescence on Microplate Luminometer LB96V (Berthold Tchnologies, Bad Wildbad, Germany). An integration time of 0.1 and 1 second per well
In general terms: ATP-based viability assays read luminescence as a measure of living cells.

Data set [2] concerns Hs578T. The data set is described as follows: Matrigel outgrowth assay/branching assay. The data set is classed as cell-based. The note with it: Homo sapiens, Hs-578T; HS578T cell line; Table Ib; read-out: Total branching inhibition in Matrigel HS578T. The method, then: The Matrigel outgrowth assay is based on the ability of tumor cell to penetrate a solid gel of extracellular matrix proteins mimicking the metastasis formation in vivo. While cells with low invasive potential appear as roundish cell or cell cluster, cells with high invasive potential penetrate the Matrigel and form polymorphic structures. In detail 65 μl of Matrigel matrix (Matrigel™ Matrix, BD Biosciences, Bedford, Mass., USA) with a concentration of 3 mg/ml have been polymerized in 96 well plates for 1 h at 37° C. Subsequently 5000 cell/well were seeded into each well containing cell culture medium and indicated compound with concentrations of 3.125 μM, 1.56 μM and 0.78 μM as well as DMSO control. After 48 h, 72 h and 96 h images of cell were taken on an inverted microscope using a 5× objective (Zeiss Axiovert S100 microscope Carl Zeiss UK, Welwyn Garden City, UK). Only compound concentrations were total branching inhibition was evident were accounted as positive. Method was used as previously described, with some modifications (Thompson E W, et al. Association of increased basement membrane invasiveness with absence of estrogen receptor and expression of vimentin in human breast cancer cell lines. J Cell Physiol 1992; 150:534-44).

The test system of data set [3] is Hs578T. Nature of the data set: Wound healing migration assay. In kind it is cell-based. The conditions noted are these: Homo sapiens, Hs-578T; HS578T cell line; Table Ib. On the procedure:
This method mimics cell migration during wound healing in vivo. The basic steps involve creating a “wound” in a cell monolayer, capturing the images at the beginning and at regular intervals during cell migration to close the wound, and comparing the images to quantify the migration rate of the cells. In detail, 150000 cell/24 well have been seeded and allowed to form a monolayer overnight. Subsequently a “wound” or “scratch” has been performed with a 1000 μl pipette tip. The STDV of wound size is normally below 10% at time point t0. The assay was stopped by fixation with 0.05% Crystal violet/20% methanol when control scratches were closed. The assay was terminated between 48 h and 72 h depending on the migration potential of the indicated cell line. The “wounds” were visualized with a Zeiss Axiovert S100 microscope (Carl Zeiss UK, Welwyn Garden City, UK). The tested compounds were used at 12.5 μM, 6.25, 3.125 μM and DMSO control. IC50 values have been calculated as 50% wound size in between t0 and t48 or t72.

The values that follow come from patent US9169241B2, “Quinolinyloxyphenylsulfonamides” (Max-Planck-Gesellschaft Zur Forderung der Wissenschaften …, priority 2009, dated 2015).

Usually melting point stands for the temperature, or range, at which the solid turns liquid. On to `CCn1cc(S(=O)(=O)Nc2cccc(Oc3ccnc4cc(OCCCN5CCN(C)CC5)c(OC)cc34)c2)cn1` [Example 140, 1-Ethyl-1H-pyrazole-4-sulfonic acid (3-{6-methoxy-7-[3-(4-methyl-piperazin-1-yl)-propoxy]-quinolin-4-yloxy}-phenyl)-amide], for which the melting point lay in the range of 87 to 90 °C. Further, the IC50 in data set [1] fell in the range of 12.5 to 50 µM. The IC50 in data set [2] is 10 to 25 µM. In data set [3], this compound displayed an IC50 of 12.5 to 50 µM.

Take `COc1cc2c(Oc3cccc(NS(=O)(=O)c4c[nH]c(C)n4)c3)ccnc2cc1OCCCN1CCN(C)CC1` [Example 141, 2-Methyl-1H-imidazole-4-sulfonic acid (3-{6-methoxy-7-[3-(4-methyl-piperazin-1-yl)-propoxy]-quinolin-4-yloxy}-phenyl)-amide]: the melting point is 118 to 120 °C. For the same compound, in data set [1], the IC50 was in the range of 12.5 to 50 µM. Further, the IC50 in data set [2] was 10 to 25 µM. This compound gave an IC50 in data set [3] of 12.5 to 50 µM.

In turn, `COc1cc2c(Oc3cccc(NS(=O)(=O)C4CC4)c3)ccnc2cc1OCCCN1CCN(C)CC1` [Example 142, Cyclopropanesulfonic acid (3-{6-methoxy-7-[3-(4-methyl-piperazin-1-yl)-propoxy]-quinolin-4-yloxy}-phenyl)-amide] came in with a melting point of 150 to 152 °C. In data set [1], the IC50 is 12.5 to 50 µM. The IC50 in data set [2] fell in the range of 10 to 25 µM. The compound further returned an IC50 in data set [3] of 12.5 to 50 µM.

`COc1cc2c(Oc3cccc(NS(=O)(=O)/C=C/c4ccccc4)c3)ccnc2cc1OCCCN1CCN(C)CC1` [Example 143, 2-Phenyl-ethenesulfonic acid (3-{6-methoxy-7-[3-(4-methyl-piperazin-1-yl)-propoxy]-quinolin-4-yloxy}-phenyl)-amide] showed a melting point of 85 to 87 °C. Also, the IC50 in data set [1] was not above 12.5 µM. Further, the IC50 in data set [2] is not above 10 µM. The same compound gave an IC50 in data set [3] not above 12.5 µM.

For `COc1cc2c(Oc3ccc(NS(=O)(=O)c4c[nH]c(C)n4)cc3F)ccnc2cc1OCCCN1CCCCC1C` (stereo not drawn) [Example 149, 2-Methyl-1H-imidazole-4-sulfonic acid (3-fluoro-4-{6-methoxy-7-[3-(2-methyl-piperidin-1-yl)-propoxy]-quinolin-4-yloxy}-phenyl)-amide], the melting point lay within 219 to 220 °C. In data set [1], the IC50 lay in the range of 12.5 to 50 µM. Besides, in data set [2], the IC50 was in the range of 10 to 25 µM. In data set [3], this compound returned an IC50 of 12.5 to 50 µM.

`COc1cc2c(Oc3ccc(NS(=O)(=O)c4ccn(C)n4)cc3F)ccnc2cc1OCCCN1CCCCC1C` (stereo not drawn) [Example 150, 1-Methyl-1H-pyrazole-3-sulfonic acid (3-fluoro-4-{6-methoxy-7-[3-(2-methyl-piperidin-1-yl)-propoxy]-quinolin-4-yloxy}-phenyl)-amide] yielded a melting point of 175 to 176 °C. Further, the IC50 in data set [1] is not above 12.5 µM. Further, the IC50 in data set [2] fell in the range of 10 to 25 µM. The compound also displayed an IC50 in data set [3] of 12.5 to 50 µM.

`COc1cc2c(Oc3ccc(NS(=O)(=O)c4c(C)nn(C)c4C)cc3F)ccnc2cc1OCCCN1CCCCC1` [Example 159, 1,3,5-Trimethyl-1H-pyrazole-4-sulfonic acid {3-fluoro-4-[6-methoxy-7-(3-piperidin-1-yl-propoxy)-quinolin-4-yloxy]-phenyl}-amide] yielded a melting point of 96 to 98 °C. For the same compound, in data set [1], the IC50 is not above 12.5 µM. Moreover, in data set [2], the IC50 was in the range of 10 to 25 µM. In addition, the IC50 in data set [3] was 12.5 to 50 µM.

Take `COc1cc2c(Oc3ccc(NS(=O)(=O)c4c(C)nn(C)c4C)cc3F)ccnc2cc1OCCCN1CCC(C)CC1` [Example 160, 1,3,5-Trimethyl-1H-pyrazole-4-sulfonic acid (3-fluoro-4-{6-methoxy-7-[3-(4-methyl-piperidin-1-yl)-propoxy]-quinolin-4-yloxy}-phenyl)-amide]: the melting point is 88 to 90 °C. Further, the IC50 in data set [1] is not above 12.5 µM. Besides, the IC50 in data set [2] fell in the range of 10 to 25 µM. The compound further had an IC50 in data set [3] not above 12.5 µM.

As for `COc1cc2c(Oc3ccc(NS(=O)(=O)c4c(C)nn(C)c4C)cc3F)ccnc2cc1OCCCN1CCOCC1` [Example 161, 1,3,5-Trimethyl-1H-pyrazole-4-sulfonic acid {3-fluoro-4-[6-methoxy-7-(3-morpholin-4-yl-propoxy)-quinolin-4-yloxy]-phenyl}-amide], the melting point lay in the range of 163 to 164 °C. Moreover, the IC50 in data set [1] is not above 12.5 µM. Moreover, the IC50 in data set [2] was 10 to 25 µM. The IC50 in data set [3] was in the range of 12.5 to 50 µM.

With `COc1cc2c(Oc3ccc(NS(=O)(=O)c4c(C)nn(C)c4C)cc3F)ccnc2cc1OCCCN1CCN(C)CC1` [Example 162, 1,3,5-Trimethyl-1H-pyrazole-4-sulfonic acid (3-fluoro-4-{6-methoxy-7-[3-(4-methyl-piperazin-1-yl)-propoxy]-quinolin-4-yloxy}-phenyl)-amide], the melting point was 80 to 81 °C. In addition, the IC50 in data set [1] is not above 12.5 µM. For the same compound, the IC50 in data set [2] was in the range of 10 to 25 µM. This compound showed an IC50 in data set [3] of 12.5 to 50 µM.

The compound `COc1cc2c(Oc3ccc(NS(=O)(=O)c4ccn(C)n4)cc3F)ccnc2cc1OCCCN1CCCCC1` [Example 163, 1-Methyl-1H-pyrazole-3-sulfonic acid {3-fluoro-4-[6-methoxy-7-(3-piperidin-1-yl-propoxy)-quinolin-4-yloxy]-phenyl}-amide] returned a melting point of 167 to 168 °C. Besides, the IC50 in data set [1] is not above 12.5 µM. The IC50 in data set [2] fell in the range of 10 to 25 µM. In addition, the IC50 in data set [3] is 12.5 to 50 µM.

For the compound `COc1cc2c(Oc3ccc(NS(=O)(=O)c4ccn(C)n4)cc3F)ccnc2cc1OCCCN1CCC(C)CC1` [Example 164, 1-Methyl-1H-pyrazole-3-sulfonic acid (3-fluoro-4-{6-methoxy-7-[3-(4-methyl-piperidin-1-yl)-propoxy]-quinolin-4-yloxy}-phenyl)-amide], the melting point is 165 to 166 °C. The IC50 in data set [1] is not above 12.5 µM. For the same compound, in data set [2], the IC50 was in the range of 10 to 25 µM. The IC50 in data set [3] fell in the range of 12.5 to 50 µM.

Turning to `COc1cc2c(Oc3ccc(NS(=O)(=O)c4ccn(C)n4)cc3F)ccnc2cc1OCCCN1CCOCC1` [Example 165, 1-Methyl-1H-pyrazole-3-sulfonic acid {3-fluoro-4-[6-methoxy-7-(3-morpholin-4-yl-propoxy)-quinolin-4-yloxy]-phenyl}-amide], the melting point lay in the range of 198 to 199 °C. For the same compound, the IC50 in data set [1] was not above 12.5 µM. In data set [2], the IC50 lay in the range of 10 to 25 µM. Besides, the IC50 in data set [3] fell in the range of 12.5 to 50 µM.

In turn, `COc1cc2c(Oc3ccc(NS(=O)(=O)c4ccn(C)n4)cc3F)ccnc2cc1OCCCN1CCN(C)CC1` [Example 166, 1-Methyl-1H-pyrazole-3-sulfonic acid (3-fluoro-4-{6-methoxy-7-[3-(4-methyl-piperazin-1-yl)-propoxy]-quinolin-4-yloxy}-phenyl)-amide] came in with a melting point of 157 to 159 °C. In data set [1], the IC50 was not above 12.5 µM. Also, the IC50 in data set [2] lay in the range of 10 to 25 µM. The IC50 in data set [3] was 12.5 to 50 µM.

Regarding `COc1cc2c(Oc3ccc(NS(=O)(=O)c4cnc(C)[nH]4)cc3F)ccnc2cc1OCCCN1CCCCC1` [Example 167, 2-Methyl-3H-imidazole-4-sulfonic acid {3-fluoro-4-[6-methoxy-7-(3-piperidin-1-yl-propoxy)-quinolin-4-yloxy]-phenyl}-amide], the melting point fell in the range of 160 to 163 °C. Besides, the IC50 in data set [1] lay in the range of 12.5 to 50 µM. For the same compound, the IC50 in data set [2] was in the range of 10 to 25 µM. Moreover, the IC50 in data set [3] is 12.5 to 50 µM.
